Measurements published in PubChem BioAssay AID588612 (The Scripps Research Institute Molecular Screening Center, 2011).

Biological target: Mitogen-activated protein kinase 1 (Homo sapiens) (UniProt P28482)
Assay: phospho-ERK1/2 protein level change, either direction, late-stage follow-up, counter-screen for KLF5 inhibitor project, DLD1 cells, chemiluminescent western blot, powder samples (AID 588612)
Settings: DLD-1 cells, p-ERK1/2 western blot, 24 h; at 10 µM

Mitogen-activated protein kinase 1 (Homo sapiens), sequence (P28482 whole entry, looked up): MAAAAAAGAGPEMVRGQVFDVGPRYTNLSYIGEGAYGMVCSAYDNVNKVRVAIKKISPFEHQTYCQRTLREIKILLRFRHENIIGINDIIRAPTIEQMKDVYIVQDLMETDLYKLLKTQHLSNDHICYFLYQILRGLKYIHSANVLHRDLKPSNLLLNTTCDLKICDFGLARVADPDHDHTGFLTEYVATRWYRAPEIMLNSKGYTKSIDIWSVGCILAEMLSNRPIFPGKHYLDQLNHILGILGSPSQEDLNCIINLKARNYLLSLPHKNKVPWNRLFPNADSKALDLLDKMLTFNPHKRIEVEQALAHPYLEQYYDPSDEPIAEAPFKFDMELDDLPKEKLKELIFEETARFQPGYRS

Row | fold change | SMILES
1 | 9.41 | CN(C(=O)CNC(=O)/C=C/c1cccc(Cl)c1)C1CCS(=O)(=O)CC1
2 | 11 | CN(C(=O)COC(=O)/C=C/c1cccc([N+](=O)[O-])c1)C1CCS(=O)(=O)C1 (stereo not drawn)
3 | 9.88 | CN(C(=O)CNC(=O)/C=C/c1cccc(Cl)c1)C1CCS(=O)(=O)C1 (stereo not drawn)
